Reference: PubChem BioAssay (NCI)
Where “and” joins values, the source holds several entries; their conditions need not be identical. Equal values may be shown once.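 Cultured in 96-well plates, cells were exposed to test compound for 48 hours across five concentrations. GI50 = concentration required for 50% inhibition of growth. At the TGI there is no net growth.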

Key:
Assay in all cases: NCI-60 cell line screen, 48 h
SR leukemia = test system: SR leukemia
K-562 leukemia = test system: K-562 leukemia
HCT-116 colon = test system: HCT-116 colon
TK-10 renal = test system: TK-10 renal
SF-268 CNS = test system: SF-268 CNS
HL-60(TB) leukemia = test system: HL-60(TB) leukemia
OVCAR-3 ovarian = test system: OVCAR-3 ovarian
MDA-MB-231 breast = test system: MDA-MB-231 breast
HS 578T breast = test system: HS 578T breast
HOP-62 NSCLC = test system: HOP-62 NSCLC

Compound | TGI (SR leukemia) | GI50 (K-562 leukemia) | TGI (K-562 leukemia) | TGI (HCT-116 colon) | TGI (TK-10 renal) | TGI (SF-268 CNS) | GI50 (HL-60(TB) leukemia) | TGI (HL-60(TB) leukemia) | TGI (OVCAR-3 ovarian) | TGI (MDA-MB-231 breast) | TGI (HS 578T breast) | TGI (HOP-62 NSCLC) | GI50 (SR leukemia) | GI50 (HCT-116 colon) | GI50 (TK-10 renal) | GI50 (SF-268 CNS) | GI50 (OVCAR-3 ovarian) | GI50 (MDA-MB-231 breast) | GI50 (HS 578T breast) | GI50 (HOP-62 NSCLC)
ClC(Cl)=C1C(=C(Cl)Cl)C(Cl)(Cl)C1(Cl)Cl | 3.46 µM | 0.532 µM | 5.62 µM | 3.73 µM | 11 µM | 9.22 µM | 0.259 µM | 0.66 µM and 2.11 µM | 14.1 µM | 4.81 µM | 10.4 µM | 22.1 µM | – | – | – | – | – | – | – | –
Nc1cc2c(cc1Br)[nH]c(=O)c1ccccc12 | 47.2 µM | 5.78 µM | > 100 µM | 25.5 µM | 32.7 µM | 44.9 µM | 10.8 µM | 54.3 µM | 6.45 µM | 54.9 µM | 28.9 µM | 13.3 µM | 5.07 µM | 2.91 µM | 4.27 µM | 5.9 µM | 2.14 µM | 3.37 µM | 3.5 µM | 3.71 µM
CCc1ccc2c(c1)C(=O)c1c-2n(CCCN=[N+]=[N-])c(=O)c2cc([N+](=O)[O-])ccc12 | > 50 µM | > 50 µM | > 50 µM | > 50 µM | > 50 µM | > 50 µM | > 50 µM | > 50 µM | > 50 µM | > 50 µM | > 50 µM | > 50 µM | > 50 µM | > 50 µM | > 50 µM | > 50 µM | > 50 µM | > 50 µM | > 50 µM | > 50 µM
COc1ccc(-c2nn(-c3cccc(Cl)c3)cc2-c2cc(-c3ccccc3)[nH]c(=O)c2C#N)cc1 | 15.8 µM | 9.22 µM | > 50 µM | 32.8 µM | 4.6 µM | > 50 µM | 21.9 µM | > 50 µM | 16.8 µM | 10.4 µM | > 50 µM | 2.87 µM | 7.74 µM | 1.71 µM | 1.47 µM | 2.59 µM | 2.84 µM | 1.24 µM | 1.41 µM | 1.17 µM
O=C(Nc1cc(Cl)ccc1O)c1ccc(Nc2ccnc(C(F)(F)F)c2)cc1 | 9.84 µM | 2.89 µM | > 100 µM | 60.8 µM | 7.89 µM | > 100 µM | 1.25 µM | 4.42 µM | 5.58 µM | 6.35 µM | > 100 µM | 23.7 µM | 2.52 µM | 2.9 µM | 2 µM | 3.99 µM | 2.16 µM | 2.11 µM | 3.75 µM | 3.23 µM
O=C(Nc1cc(Nc2ncccc2-c2ncnc3nc[nH]c23)ccc1F)c1cc(C(F)(F)F)cc(C(F)(F)F)c1 | 5.67 µM | 0.4 µM | > 10 µM | 2.72 µM | > 10 µM | > 10 µM | 0.439 µM | 8.44 µM | 6.69 µM | 2.79 µM | 8.88 µM | > 10 µM | 2.09 µM | 0.601 µM | 3.75 µM | 3.17 µM | 2.67 µM | 1.04 µM | 1.8 µM | 1.15 µM
COc1ccc(-c2nccn2-c2ccc(OC)cc2)cc1 | 30.8 µM | 6.43 µM | 61.4 µM | 44.4 µM | > 75.9 µM | 74.4 µM | 14.2 µM | 34.2 µM | 62.6 µM | 57.5 µM | 74.7 µM | 74.4 µM | 0.64 µM | 16.4 µM | 23 µM | 22.9 µM | 21.6 µM | 16.4 µM | 20.9 µM | 22 µM
CC(C)c1[nH]nc2c1N=C(c1ccccc1Cl)c1cc([N+](=O)[O-])ccc1N2 | 10 µM | 1.98 µM | > 25 µM | > 25 µM | > 23.1 µM | > 25 µM | 4.99 µM | 12.2 µM | 13.1 µM | > 25 µM | > 20.7 µM | > 25 µM | 1.51 µM | 4.35 µM | 7.31 µM | 7.92 µM | 4.68 µM | 7.92 µM | 3.16 µM | 6.58 µM
Cc1cc(N/N=C/c2ccccn2)nc2ccccc12 | 5 µM | 0.422 µM | 7.55 µM | 5.81 µM | 20.6 µM | 15.3 µM | 0.295 µM | 0.804 µM | 11 µM | 14.3 µM | 34.5 µM | 5.06 µM | 0.308 µM | 0.393 µM | 0.674 µM | 0.44 µM | 0.382 µM | 0.469 µM | 8.2 µM | 0.331 µM
COc1ccc(-c2cnnn2-c2nonc2-n2cccc2)cc1 | > 60.3 µM | 0.039 µM | > 100 µM | – | > 61 µM | 27.6 µM | 0.177 µM | 0.547 µM | 0.47 µM | > 25 µM | 2.13 µM | > 83.1 µM | 0.0451 µM | 0.354 µM | 2.12 µM | 0.52 µM | 0.179 µM | 1.21 µM | 0.239 µM | 0.34 µM
O=C(c1ccco1)c1c(C(F)(F)F)n([O-])c2ccc(C(F)(F)F)cc2[n+]1=O | 0.408 µM | 0.287 µM | 0.765 µM | 0.279 µM | 2.3 µM | 0.674 µM | 0.0696 µM | 0.31 µM | 0.835 µM | 0.768 µM | 2.74 µM | 2.95 µM | 0.127 µM | 0.147 µM | 0.926 µM | 0.266 µM | 0.383 µM | 0.298 µM | 0.654 µM | 1.47 µM
NNCCc1ccc(NC(=O)CCCc2ccc(C(=O)Nc3ccccc3N)cc2)cc1 | > 100 µM | 3.58 µM | > 100 µM | > 100 µM | > 100 µM | > 100 µM | 3.34 µM | 25 µM | > 100 µM | > 100 µM | > 100 µM | > 100 µM | 3.24 µM | 2.75 µM | 2.03 µM | 5.97 µM | 9.42 µM | 17.4 µM | 37.8 µM | 10.8 µM
CCCCCCCCCCNC(=O)CI | 0.64 µM | 0.938 µM | 3.95 µM | 3.07 µM | 3.33 µM | 3.65 µM | 1.32 µM | 3.12 µM | 3.44 µM | 3.29 µM | 6.79 µM | 4.04 µM | 0.204 µM | 1.65 µM | 1.76 µM | 1.86 µM | 1.87 µM | 1.66 µM | 2.53 µM | 1.95 µM
O=C(/C=C/c1ccccc1)c1ccccc1 | > 10 µM | – | > 7.51 µM | 4.55 µM | > 10 µM | > 10 µM | – | > 10 µM | > 10 µM | > 10 µM | > 10 µM | > 10 µM | – | – | – | – | – | – | – | –
CCCc1cc(=O)n2c(C(=O)Nc3ccc(Cl)cc3C)c(C(=O)Nc3ccc(F)cc3)sc2n1 | 3.75 µM | 1.08 µM | 20.3 µM | > 150 µM | 39.3 µM | 24.9 µM | 1.33 µM | 23.8 µM | 8.33 µM | 3.08 µM | 8.55 µM | 3.95 µM | 0.943 µM | 2.53 µM | 12.3 µM | 6.62 µM | 3.35 µM | 0.698 µM | 2.27 µM | 1.54 µM
N[C@H](CCC(=O)N[C@@H](Cc1c[nH]c2ccccc12)C(=O)O)C(=O)O | > 100 µM | > 100 µM | > 100 µM | > 100 µM | > 100 µM | > 100 µM | > 100 µM | > 100 µM | > 100 µM | > 100 µM | > 100 µM | > 100 µM | > 100 µM | > 100 µM | > 100 µM | > 100 µM | > 100 µM | > 100 µM | > 100 µM | > 100 µM
Nc1cc(Br)c(-c2nnc(CCC(=O)c3nc4ccccc4[nH]3)o2)c(Br)c1 | > 100 µM | 2.89 µM | > 100 µM | > 100 µM | > 100 µM | 81.5 µM | 3.44 µM | > 100 µM | 6.98 µM | 86.8 µM | 31.7 µM | > 100 µM | 4.2 µM | 8.26 µM | 36.5 µM | 5.14 µM | 2.6 µM | 10.1 µM | 3.75 µM | 23.7 µM
COc1ccc(-c2ccc3c(N4CCOC[C@@H]4C)nc(N4CCOC[C@@H]4C)nc3n2)cc1CO | > 100 µM | 0.012 µM and 0.0551 µM | > 100 µM | > 100 µM | 0.237 µM and 0.212 µM | > 3.31 µM and 51.1 µM | – | > 3.76 µM and 20.7 µM | > 34.6 µM | 13.8 µM | 0.0145 µM and 0.0679 µM | 1.65 µM and 0.527 µM | 0.00529 µM and 0.027 µM | 0.00858 µM and 0.0734 µM | 0.00484 µM and 0.0147 µM | 0.00537 µM and 0.0359 µM | 0.00504 µM and 0.0334 µM | 0.00595 µM and 0.0364 µM | 0.0018 µM and 0.0131 µM | 0.00514 µM and 0.028 µM
C#CCOc1cccc(Nc2ncnc3c(NC(=O)C=C)cccc23)c1 | > 100 µM | 7.87 µM | > 100 µM | 85.9 µM | 69.2 µM | > 100 µM | 18.9 µM | > 100 µM | 91.5 µM | > 100 µM | > 100 µM | > 100 µM | 4.37 µM | 17 µM | 19.2 µM | 27.7 µM | 16.5 µM | 20.7 µM | 30.3 µM | 27.8 µM
